# Test results as given in ChEMBL document CHEMBL1140326, “Dicarboxylic acid azacycle l-prolyl-pyrrolidine amides as prolyl oligopeptidase inhibitors and three-dimensional quantitative structure-activity relationship of the enzyme-inhibitor interactions” (J Med Chem, 2005).
# pIC50: −log10 of the molar value.
# Biological target: Prolyl endopeptidase (Sus scrofa, UniProt P23687)
# Experiment: In vitro inhibitory activity against porcine prolyl oligopeptidase by using 4 mM Suc-Gly-Pro-7-amido-4-methylcoumarin as substrate (pH 7.0) at 30 degree C for 60 min
# Chain of Prolyl endopeptidase (P23687 whole entry): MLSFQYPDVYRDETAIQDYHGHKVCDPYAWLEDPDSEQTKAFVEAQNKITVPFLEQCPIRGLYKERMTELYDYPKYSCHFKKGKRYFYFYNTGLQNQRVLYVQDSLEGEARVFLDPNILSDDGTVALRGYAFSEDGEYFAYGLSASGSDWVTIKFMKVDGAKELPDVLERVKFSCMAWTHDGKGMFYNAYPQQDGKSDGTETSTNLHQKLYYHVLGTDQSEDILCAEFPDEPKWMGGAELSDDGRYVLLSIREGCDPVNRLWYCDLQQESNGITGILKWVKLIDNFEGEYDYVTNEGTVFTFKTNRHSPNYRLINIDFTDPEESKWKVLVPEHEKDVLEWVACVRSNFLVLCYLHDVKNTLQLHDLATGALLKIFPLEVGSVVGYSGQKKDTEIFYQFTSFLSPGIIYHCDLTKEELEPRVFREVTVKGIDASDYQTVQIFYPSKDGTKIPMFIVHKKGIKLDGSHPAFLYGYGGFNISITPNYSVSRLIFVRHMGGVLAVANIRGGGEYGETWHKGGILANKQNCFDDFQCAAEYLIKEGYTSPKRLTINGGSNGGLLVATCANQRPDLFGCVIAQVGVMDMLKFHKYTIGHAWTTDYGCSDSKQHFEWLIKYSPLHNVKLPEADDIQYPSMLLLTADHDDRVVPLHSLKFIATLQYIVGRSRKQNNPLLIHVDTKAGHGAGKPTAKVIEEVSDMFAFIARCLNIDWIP
row,SMILES,pIC50
1,O=C(NCc1ccccc1)[C@@H]1CCCN1C(=O)c1cccc(C(=O)N2CCC[C@H]2C(=O)N2CCCC2)c1,7.51
2,O=C(c1ccccc1)[C@@H]1CCCN1C(=O)c1cccc(C(=O)N2CCC[C@H]2C(=O)N2CCCC2)c1,7.74
3,CC(=O)[C@@H]1CCCN1C(=O)c1cccc(C(=O)N2CCC[C@H]2C(=O)N2CCC[C@H]2C#N)c1,8.38
4,O=C(CO)[C@@H]1CCCN1C(=O)[C@@H]1CCCN1C(=O)c1cccc(C(=O)N2CCC[C@H]2C(=O)C2CCCC2)c1,9.21
5,O=C([C@@H]1CCCN1C(=O)c1ccc(C(=O)N2CCC[C@H]2C(=O)N2CCCC2)cc1)N1CCCC1,7.09
6,O=C([C@@H]1CCCN1C(=O)c1cccc(C(=O)N2CCC[C@H]2C(=O)N2CCCC2)c1)N1CCCCCC1,7.64
7,CC(C)C(=O)[C@@H]1CCCN1C(=O)c1cccc(C(=O)N2CCC[C@H]2C(=O)N2CCC[C@H]2C#N)c1,8.80
8,O=C(CCC(=O)N1CCC[C@H]1C(=O)N1CCCC1)N1CCCC1,6.96
9,N#C[C@@H]1CCCN1C(=O)[C@@H]1CCCN1C(=O)c1cccc(C(=O)N2CCCCCC2)c1,8.34
10,N#C[C@@H]1CCCN1C(=O)[C@@H]1CCCN1C(=O)CCCC(=O)N1CCCCCC1,8.92
11,CC(=O)[C@@H]1CCCN1C(=O)c1cccc(C(=O)N2CCC[C@H]2C(=O)N2CCC[C@H]2C(=O)CO)c1,8.92
12,N#C[C@@H]1CCCN1C(=O)[C@@H]1CCCN1C(=O)c1ccccc1C(=O)N1CCCC1,5.82
13,O=C([C@@H]1CCCN1C(=O)CCCCC(=O)N1CCC[C@H]1C(=O)N1CCCC1)N1CCCC1,7.17
14,N#C[C@@H]1CCCN1C(=O)[C@@H]1CCCN1C(=O)CCC(=O)N1CCCCCC1,9.12
15,O=C(CCC(=O)N1CCC[C@H]1C(=O)N1CCCC1)N1CCCCCC1,7.39
16,N#C[C@@H]1CCCN1C(=O)[C@@H]1CCCN1C(=O)c1cccc(C(=O)N2CCCC2)c1,8.16

row,SMILES,pIC50
1,N#C[C@@H]1CCCN1C(=O)[C@@H]1CCCN1C(=O)c1cccc(C(=O)N2CCC[C@H]2C(=O)C2CCCC2)c1,8.96
2,O=C(C1CCCC1)[C@@H]1CCCN1C(=O)c1cccc(C(=O)N2CCC[C@H]2C(=O)N2CCCC2)c1,7.85
3,CC(C)(C)OC(=O)N1CCN(C(=O)[C@@H]2CCCN2C(=O)c2cccc(C(=O)N3CCC[C@H]3C(=O)N3CCCC3)c2)CC1,6.77
4,O=C(N[C@@H](Cc1ccccc1)C(=O)N1CCCC1)c1cccc(C(=O)N[C@@H](Cc2ccccc2)C(=O)N2CCCC2)c1,7.09
5,O=C(CO)[C@@H]1CCCN1C(=O)[C@@H]1CCCN1C(=O)CCCc1ccccc1,9.66
6,N#C[C@@H]1CCCN1C(=O)[C@@H]1CCCN1C(=O)CCC(=O)N1CCCC1,8.54
7,N#C[C@@H]1CCCN1C(=O)[C@@H]1CCCN1C(=O)c1ccccc1,8.51
8,N#C[C@@H]1CCCN1C(=O)[C@@H]1CCCN1C(=O)c1cccc(C(=O)N2CCC[C@H]2C(=O)C2CCCCC2)c1,9.14
9,O=C(CCC(=O)N1CCC[C@H]1C(=O)N1CCCC1)N1CCOCC1,5.92
10,N#C[C@@H]1CCCN1C(=O)[C@@H]1CCCN1C(=O)c1cccc(C(=O)N2CCC[C@H]2C(=O)c2ccccc2)c1,8.89
11,CC(=O)[C@@H]1CCCN1C(=O)c1cccc(C(=O)N2CCC[C@H]2C(=O)N2CCCC2)c1,7.19
12,CC(C)(CC(=O)N1CCCCCC1)CC(=O)N1CCC[C@H]1C(=O)N1CCC[C@H]1C#N,9.41
13,O=C([C@@H]1CCCN1C(=O)CCC(=O)N1CCC[C@H]1C(=O)N1CCCC1)N1CCCC1,7.11
14,N#C[C@@H]1CCCN1C(=O)[C@@H]1CCCN1C(=O)c1ccc(C(=O)N2CCCC2)cc1,8.80
15,O=C(c1ccccc1C(=O)N1CCC[C@H]1C(=O)N1CCCC1)N1CCCC1,4.72
16,O=C([C@@H]1CCCN1C(=O)c1cccc(C(=O)N2CCC[C@H]2C(=O)N2CCNCC2)c1)N1CCCC1,7.48
